Our source for the IC50 values is US12338255B2, “Bicyclic substituted sulfonylurea compounds as inhibitors of interleukin-1 activity” (Viva Star Biosciences (Suzhou) Co., Ltd., priority 2022, dated 2025).

Each structure is given as a SMILES string. Bounds are passed on as bounds.

T1 sequence (Q96P20 whole entry): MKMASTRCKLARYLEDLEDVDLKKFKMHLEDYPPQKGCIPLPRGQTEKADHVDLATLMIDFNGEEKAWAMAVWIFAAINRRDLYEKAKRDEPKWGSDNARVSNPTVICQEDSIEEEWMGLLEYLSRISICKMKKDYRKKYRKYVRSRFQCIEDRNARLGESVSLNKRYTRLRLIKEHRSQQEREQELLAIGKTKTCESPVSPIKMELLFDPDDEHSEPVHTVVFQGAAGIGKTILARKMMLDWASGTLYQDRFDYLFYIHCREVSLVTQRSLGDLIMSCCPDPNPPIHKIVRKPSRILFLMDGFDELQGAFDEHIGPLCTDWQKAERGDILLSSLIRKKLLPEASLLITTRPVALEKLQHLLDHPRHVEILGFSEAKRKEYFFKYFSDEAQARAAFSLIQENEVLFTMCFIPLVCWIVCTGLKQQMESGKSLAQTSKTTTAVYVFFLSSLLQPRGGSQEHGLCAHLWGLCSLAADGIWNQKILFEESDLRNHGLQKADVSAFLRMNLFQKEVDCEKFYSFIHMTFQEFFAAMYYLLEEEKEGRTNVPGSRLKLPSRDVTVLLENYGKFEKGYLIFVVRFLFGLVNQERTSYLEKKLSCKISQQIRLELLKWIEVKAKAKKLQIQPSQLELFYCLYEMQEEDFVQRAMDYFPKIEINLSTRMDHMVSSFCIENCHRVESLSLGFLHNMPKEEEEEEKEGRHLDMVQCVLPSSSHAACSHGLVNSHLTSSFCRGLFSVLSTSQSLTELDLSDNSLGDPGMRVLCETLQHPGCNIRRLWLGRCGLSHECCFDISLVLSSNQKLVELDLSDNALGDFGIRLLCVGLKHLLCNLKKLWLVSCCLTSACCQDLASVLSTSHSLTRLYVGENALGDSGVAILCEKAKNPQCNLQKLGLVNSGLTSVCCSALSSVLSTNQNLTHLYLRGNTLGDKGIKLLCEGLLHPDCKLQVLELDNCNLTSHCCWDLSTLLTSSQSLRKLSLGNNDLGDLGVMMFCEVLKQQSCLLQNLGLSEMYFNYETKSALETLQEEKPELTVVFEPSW

This assay addresses T1, NLRP3 (Homo sapiens, UniProt Q96P20).
T1 construct: Seed THP-1 cells (5.56*10^5 cells/mL) containing 1.0 ug/mL LPS; endogenous in cells; host or cells: THP-1 cells
Kind of assay: THP-1 LPS/nigericin IL1β release (pyroptosis assay), HTRF. The note with it: NLRP3 inhibitory activity; THP-1 cells, 1.0 ug/mL LPS, compound 3 hrs, nigericin 5 uM 1 hr, IL1β in supernatant. The format is cell-based. Here is the method: The following method was used for compound screening. • 1. Seed THP-1 cells (5.56*10^5 cells/mL) containing 1.0 ug/mL LPS (SIGMA, L6529) in 45 uL RPMI 1640 medium (without FBS) into 384-well plate (Thermo Scientific, 164688). • 2. Add 5 uL compound (10 doses starting from 5 uM, 1:3 dilution) or vehicle (0.05% DMSO in medium) to the appropriate wells. • 3. Centrifuge the plates at 1000 rpm for 2 mins and incubate for 3 hrs at 37° C., 5% CO2. • 4. Add 5 uL nigericin (MEC, HY-100381) (final conc. 5 uM) to sample wells and positive control wells; add 5 uL RPMI 1640 medium to negative control wells. • 5. Centrifuge plates at 1000 rpm for 2 mins and incubate for 1 hr at 37° C., 5% CO2. • 6. At the end of the incubation period, centrifuge plates at 1000 rpm for 6 mins and transfer 8 uL supernatant into 384-well assay plates (PerkinElmer, 6008280). • 7. Add 8 ul RPMI 1640 medium into each well and spin down for 10 secs. • 8. Prepare the standard solutions and pre-mixed IL1β antibodie solution of Human IL1β kits (PerkinElmer, 62HIL1BPEH) according to the instruction. • 9. Add 16 uL standard solutions into clear wells of 384-well assay plates. • 10. Add 4 uL pre-mixed IL1β antibodie solution to all wells including sample wells, positive control wells, negative control wells and standard solutions wells. • 11. Seal the plates, spin down for 10 secs, incubation for overnight at RT and read on an HTRF® compatible reader (BMG LABTECH, PHERAstar FS). • 12. The concentrations of IL1β for treated wells are calculated by the standard curve. • 13. The IC50 data is fitted to a non-liner regression equation (log inhibitor vs. response—Variable slope four parameters)).
Take `O=C(Nc1c(-c2ccn3ccnc3c2)ccc2c1CCC2)NS(=O)(=O)c1cc2n(n1)CCO[C@@H]2C1CC1` (single isomer, unassigned) [Example 11]: the IC50 lay within 100 to 500 nM.

As to `Cc1cc2c(c(NC(=O)NS(=O)(=O)c3cc4n(n3)CCOC4(C)C)c1-c1ccnc3[nH]ccc13)CCC2` [Example 20, 4,4-dimethyl-N-((6-methyl-5-(1H-pyrrolo[2,3-b]pyridin-4-yl)-2,3-dihydro-1H-inden-4-yl)carbamoyl)-6,7-dihydro-4H-pyrazolo[5,1-c][1,4]oxazine-2-sulfonamide], the half-inhibitory concentration (IC50) was in the range of 100 to 500 nM.

Regarding `Cc1cc2c(c(NC(=O)NS(=O)(=O)c3cc4n(n3)CCOC43CCC3)c1-c1ccn3nccc3c1)CCC2` [Example 17, N-((6-methyl-5-(pyrazolo[1,5-a]pyridin-5-yl)-2,3-dihydro-1H-inden-4-yl)carbamoyl)-6′,7′-dihydrospiro[cyclobutane-1,4′-pyrazolo[5,1-c][1,4]oxazine]-2′-sulfonamide], the IC50 was at most 100 nM.

In the case of `O=C(Nc1c(-c2ccn3nccc3c2)ccc2c1CCC2)NS(=O)(=O)c1cc2n(n1)C(C1CC1)COC2` (stereo not drawn) [Example 16, 7-cyclopropyl-N-((5-(pyrazolo[1,5-a]pyridin-5-yl)-2,3-dihydro-1H-inden-4-yl)carbamoyl)-6,7-dihydro-4H-pyrazolo[5,1-c][1,4]oxazine-2-sulfonamide], the IC50 was 100 to 500 nM.

For the molecule `CO[C@@H]1COc2c(S(=O)(=O)NC(=O)Nc3c4c(cc(C)c3-c3ccc5nccn5c3)CCC4)cnn2C1` [Example 30, (S)-N-((5-(imidazo[1,2-a]pyridin-6-yl)-6-methyl-2,3-dihydro-1H-inden-4-yl)carbamoyl)-6-methoxy-6,7-dihydro-5H-pyrazolo[5,1-b][1,3]oxazine-3-sulfonamide], the IC50 was at most 100 nM.

Take `O=C(Nc1c(-c2ccn3nncc3c2)ccc2c1CCC2)NS(=O)(=O)c1cc2n(n1)CCO[C@H]2C1CC1` (single isomer, unassigned) [Example 7]: the IC50 is 100 to 500 nM.

As for `CO[C@@H]1COc2c(S(=O)(=O)NC(=O)Nc3c4c(cc(C)c3-c3ccn5nccc5c3)CCC4)cnn2C1` [Example 27, (S)-6-methoxy-N-((6-methyl-5-(pyrazolo[1,5-a]pyridin-5-yl)-2,3-dihydro-1H-inden-4-yl)carbamoyl)-6,7-dihydro-5H-pyrazolo[5,1-b][1,3]oxazine-3-sulfonamide], the IC50 was at most 100 nM.

The molecule `O=C(Nc1c(-c2ccc3ncnn3c2)ccc2c1CCC2)NS(=O)(=O)c1cc2n(n1)CCO[C@@H]2C1CC1` (single isomer, unassigned) [Example 4] gave an IC50 of 100 to 500 nM.

On to `Cc1cc2c(c(NC(=O)NS(=O)(=O)c3cn4c(n3)C(C3CC3)OCC4)c1-c1ccn3nccc3c1)CCC2` (stereo not drawn) [Example 18, 8-cyclopropyl-N-((6-methyl-5-(pyrazolo[1,5-a]pyridin-5-yl)-2,3-dihydro-1H-inden-4-yl)carbamoyl)-5,6-dihydro-8H-imidazo[2,1-c][1,4]oxazine-2-sulfonamide], for which the IC50 is at most 100 nM.

`O=C(Nc1c(-c2ccn3nccc3c2)ccc2c1CCC2)NS(=O)(=O)c1cnc2c(c1)N(C1CC1)CCO2` [Example 24, 1-cyclopropyl-N-((5-(pyrazolo[1,5-a]pyridin-5-yl)-2,3-dihydro-1H-inden-4-yl)carbamoyl)-2,3-dihydro-1H-pyrido[2,3-b][1,4]oxazine-7-sulfonamide] registered an IC50 of at most 100 nM.

As to `CO[C@@H]1COc2c(S(=O)(=O)NC(=O)Nc3c4c(cc(C)c3-c3ccc5ccnn5c3)CCC4)cnn2C1` [Example 29, (S)-6-methoxy-N-((6-methyl-5-(pyrazolo[1,5-a]pyridin-6-yl)-2,3-dihydro-1H-inden-4-yl)carbamoyl)-6,7-dihydro-5H-pyrazolo[5,1-b][1,3]oxazine-3-sulfonamide], the 50% inhibitory concentration (IC50) is at most 100 nM.

For the molecule `Cc1cc2c(c(NC(=O)NS(=O)(=O)c3cc4n(n3)CCOC4)c1-c1ccn3nccc3c1)CCC2` [Example 23, N-((6-methyl-5-(pyrazolo[1,5-a]pyridin-5-yl)-2,3-dihydro-1H-inden-4-yl)carbamoyl)-6,7-dihydro-4H-pyrazolo[5,1-c][1,4]oxazine-2-sulfonamide], the half-maximal inhibitory concentration (IC50) was at most 100 nM.

Molecule `Cc1cc2c(c(NC(=O)NS(=O)(=O)c3cn4c(n3)C(C3CC3)OCC4)c1-c1ccnc3[nH]ccc13)CCC2` (stereo not drawn) [Example 19, 8-cyclopropyl-N-((6-methyl-5-(1H-pyrrolo[2,3-b]pyridin-4-yl)-2,3-dihydro-1H-inden-4-yl)carbamoyl)-5,6-dihydro-8H-imidazo[2,1-c][1,4]oxazine-2-sulfonamide] showed an IC50 of 500 to 1000 nM.

Molecule `O=C(Nc1c(-c2ccn3ncnc3c2)ccc2c1CCC2)NS(=O)(=O)c1cc2n(n1)CCO[C@@H]2C1CC1` (single isomer, unassigned) [Example 13] showed a concentration for half-maximal inhibition (IC50) of 100 to 500 nM.

Regarding `CO[C@@H]1COc2c(S(=O)(=O)NC(=O)Nc3c4c(cc(C)c3-c3ccn5ccnc5c3)CCC4)cnn2C1` [Example 28, (S)-N-((5-(imidazo[1,2-a]pyridin-7-yl)-6-methyl-2,3-dihydro-1H-inden-4-yl)carbamoyl)-6-methoxy-6,7-dihydro-5H-pyrazolo[5,1-b][1,3]oxazine-3-sulfonamide], the IC50 was at most 100 nM.

`O=C(Nc1c(-c2ccn3cncc3c2)ccc2c1CCC2)NS(=O)(=O)c1cc2n(n1)CCO[C@@H]2C1CC1` (single isomer, unassigned) [Example 10] registered an IC50 of 100 to 500 nM.

On to `O=C(Nc1c(-c2ccc3ccnn3c2)ccc2c1CCC2)NS(=O)(=O)c1cc2n(n1)CCO[C@H]2C1CC1` (single isomer, unassigned) [Example 6], for which the IC50 was 100 to 500 nM.

The molecule `O=C(Nc1c(-c2ccc3cncn3c2)ccc2c1CCC2)NS(=O)(=O)c1cc2n(n1)CCO[C@@H]2C1CC1` (single isomer, unassigned) [Example 12] showed an IC50 of 100 to 500 nM.

In turn, `Cc1cc2c(c(NC(=O)NS(=O)(=O)c3cc4n(n3)CCO[C@@H]4C3CC3)c1-c1ccn3ccnc3c1)CCC2` (single isomer, unassigned) [Example 15] showed an IC50 of at most 100 nM.

As to `Cc1cc2c(c(NC(=O)NS(=O)(=O)c3cc4n(n3)CCOC4(C)C)c1-c1ccn3nccc3c1)CCC2` [Example 22, 4,4-dimethyl-N-((6-methyl-5-(pyrazolo[1,5-a]pyridin-5-yl)-2,3-dihydro-1H-inden-4-yl)carbamoyl)-6,7-dihydro-4H-pyrazolo[5,1-c][1,4]oxazine-2-sulfonamide], the IC50 is at most 100 nM.

In turn, `Cc1cc2c(c(NC(=O)NS(=O)(=O)c3cnn4c3COCC4)c1-c1ccn3nccc3c1)CCC2` [Example 26, N-((6-methyl-5-(pyrazolo[1,5-a]pyridin-5-yl)-2,3-dihydro-1H-inden-4-yl)carbamoyl)-6,7-dihydro-4H-pyrazolo[5,1-c][1,4]oxazine-3-sulfonamide] came in with an IC50 of 100 to 500 nM.

In the case of `O=C(Nc1c(-c2ccn3nccc3c2)ccc2c1CCC2)NS(=O)(=O)c1cc2n(n1)CCO[C@@H]2C1CC1` (single isomer, unassigned) [Example 1], the IC50 is at most 100 nM.

`O=C(Nc1c(-c2ccn3nccc3c2)ccc2c1CCC2)NS(=O)(=O)c1cc2n(n1)CCO[C@H]2C1CC1` (single isomer, unassigned) [Example 5] returned a half-maximal inhibitory concentration (IC50) of at most 100 nM.

`Cc1cc2c(c(NC(=O)NS(=O)(=O)c3cc4n(n3)CCO[C@@H]4C3CC3)c1-c1ccn3nccc3c1)CCC2` (single isomer, unassigned) [Example 9] gave an IC50 of at most 100 nM.
